The values below come from patent publication US5008294A, “Methods of treating tumors with compositions of catecholic butanes” (priority 1987, dated 1991).

Like-named read-outs stand apart in the source and are kept apart here.

Data set [1] relates to human breast adenocarcinoma, MX-1. The data set is described as follows: Antineoplastic activity by topical application in athymic mice implanted intradermally with human breast adenocarcinoma MX-1 (Examples 7 and 8). As to conditions: 4.4 wt/wt% composition (Table 8). It counts as in vivo. As for the experimental part: A composition containing 17.6% NDGA and 1% BHT in Pego 400 was tested for antineoplastic activity in athymic mice implanted with human breast adenocarcinoma, MX-1. Each animal was innoculated intradermally on the dorsum near the nape of the neck with 0.5 ml of a MX-1 homogenate. The animals were treated by topical application with the NDGA composition after day 23. Compositions containing 4.4 wt/wt% of meso and DL NDGA were tested for efficacy against the MX-1 tumor as in Example 7.

The subject of data set [2] is human lung tumor cell line LX-T. The data set can be described thus: Antitumor effect against human lung tumor cell line LX-T (clonogenic assay / DNA flow cytometry with DAPI, Example 5). It counts as cell-based. The method, then:
The antitumor effect of NDGA against the human lung tumor cell line LX-T was determined utilizing a clonogenic assay.
Serial dilutions of the test stock solutions were made in 15 ml of Ca^2+ --and Mg^2+ --free Hank's balanced salt solution (HBSS).
The LX-T cells were incubated in the presence of various amounts of NDGA, and the antitumor effect was determined by measuring the DNA […] of the LX-T nuclei using DNA flow cytometric analysis with a DNA-specific fluorochrome, 4', 6-diamidino-2-phenylindole (DAPI).
(A flow cytometer gives signals particle by particle.)

Data set [3] in a line: Absorption of harmful sunlight (ultraviolet) radiation (Example 10). It is filed as physicochemical. The method, then:
The ability of NDGA to absorb harmful sunlight radiation was tested.

The test system of a further data set is tumor induction by DMBA. The data set can be described thus: Anticarcinogenic activity in mice: NDGA+DMBA+TPA (Example 9). It is filed as in vivo, SENCAR mice. As to conditions: NDGA 3 mg topical, five consecutive days before DMBA and TPA. As for the experimental part:
(§1) Mice were exposed to dimethyl benzanthracene (DMBA), a classical tumor inducer, and to phorbol ester (TPA), a classical tumor promoter, after having been treated with NDGA.
(§2) Twenty mice were included in each of the following groups:
(§3) 1. Positive control group: DMBA+TPA. Female SENCAR mice 6-8 weeks old received a single topical application of […] of DMBA in 0.2 ml of acetone as the initiating agent. After one week, animals received twice weekly applications of tumor promoter TPA in 0.1 ml of acetone. Tumor formation was recorded weekly.
3. Anticarcinogenic activity: NDGA+DMBA+TPA. For five consecutive days animals received topical applications of NDGA (3 mg.) in 0.2 ml of acetone. 24 hours after the last treatment with NDGA, animals received DMBA and TPA exactly as in the positive control group.

Data set [4] concerns MC-1 equine sarcoid-derived cell line. The data set is described as follows: Inhibition of in vitro colony growth of MC-1 equine sarcoid-derived cell line (Example 4). Conditions: for inhibition at 18 µM / inhibition at 27 µM / inhibition at 56 µM: Equus caballus, 336 h; for inhibition at 18 µM: 18 MicroMolar; for inhibition at 27 µM: 27 MicroMolar; for inhibition at 56 µM: 56 MicroMolar. It is filed as cell-based. The method, then: (§4) Single cell suspensions of tumor cells harvested from culture flasks were exposed to the different compositions of NDGA for one hour at 37° C in liquid medium, and the cells were then washed twice, suspended in agarose medium and plated and the number of colony forming cells were determined. Results are expressed as percent inhibition of survival of clonogenic cells in treated cultures relative to nontreated control cultures. Significant anticancer activity was defined as>70% inhibition of the survival of colony-forming (tumor) cells.
Compositions of NDGA were tested for their ability to inhibit in vitro growth of the MC-1 equine sarcoid-derived cell line, in experiments similar to those of Example 3.

A short description of data set [5]: Stability against oxidation. As to conditions: for example, by air; more stable at lower pH. It counts as physicochemical. An excerpt: The pH of the formulation is important in assuring stability of the catecholic butane as well as assuring that the formulation is physiologically acceptable to the patient. […] Such oxidation can result in discoloration of the formulation rendering it unacceptable for pharmaceutical use. […] Therefore, it is preferred that if the formulation is to be exposed to oxidizing conditions the pH be maintained below about 7.5 and preferably below about 6 in order to provide maximum stability for the catechol against oxidation. However, if oxidizing conditions can be avoided, for example, by storage of the formulation under an inert atmosphere such as nitrogen, a higher pH can be used. The pH of the formulation may be maintained through the use of toxicologically-acceptable buffers. Such buffers are well known in the pharmaceutical formulation art, and include hydrochloric acid buffer, acid phthalate buffer, phosphate buffer and citric acid/sodium citrate buffer.

The test system of data set [6] is lung squamous cell carcinoma (LX-1). The data set can be described thus: Effect against lung squamous cell carcinoma (LX-1). Set-up: species or system human.
The test system of the next data set is TPA tumor promotion. The data set is described as follows: Antipromoting activity in mice: DMBA+NDGA+TPA (Example 9). It is filed as in vivo, SENCAR mice. As to conditions: NDGA 9 mg topical 30 minutes prior to each TPA application. As for the experimental part: as §1, §2, §3
2. Antipromoting activity: DMBA+NDGA+TPA. 30 minutes prior to each application of TPA animals received topical application of NDGA (9 mg.) in 0.2 ml of acetone.

The test system of data set [7] is several types of cancer cells. As to conditions: Leiter et al.; cited from earlier work.
For data set [8], the system named is CMT-12 cultured canine breast adenocarcinoma tumor cells. The data set is described as follows: Clonogenic assay, antiproliferative effect on CMT-12 canine breast adenocarcinoma cells (Example 3). Conditions: for No. Tumor Colonies Surviving: one hour at 37° C. It counts as cell-based. The method, then: The antiproliferative effect of NDGA on CMT-12 cultured canine breast adenocarcinoma tumor cells was evaluated in clonogenic (cancer cell) assays.
as §4

The next data set deals with melanoma (B-16). The data set can be described thus: Effect against melanoma (B-16). Set-up: species or system mouse.
For the next data set, the system named is human cancer patients. Conditions: ingested; Smart et al. 1970; cited from earlier work.
Data set [9] has as its system hepatic and colon carcinoma. The data set is described as follows: Treatment of hepatic and colon carcinoma. An excerpt:
The catecholic butanes, when applied parenterally or by injection, are excreted primarily through the liver and gut, and therefore exert preferential cytotoxicity to tumors located in those organs.

The test system of data set [10] is human breast adenocarcinoma (MX-1). The data set can be described thus: Effect against human breast adenocarcinoma (MX-1).
Data set [11] has as its system MX-1 (human breast adenocarcinoma) cells. The data set is described as follows: In vivo antitumor effect on MX-1 cells implanted subcutaneously in nude mice, intratumoral injection (Example 6). Conditions: 0.1 ml injected directly into the tumor. The method, then: The in vivo antitumor effect of NDGA at various survival levels was determined using MX-1 (human breast adenocarcinoma) cells implanted subcutaneously in the flank of nude mice.
Tumors which reached the 25-100 mm^2 range were used for the experiment. 0.1 ml of the test compound in solution was injected directly into the tumor. The tumors were measured periodically to determine their weight until 60 days after the initial treatment or all mice had died.

A further data set concerns tumor cells. The data set can be described thus: Enhancement of X-ray radiation effectiveness by topical application. Conditions: applied topically; without radiation toxicity to surrounding uninvolved skin. The text has this:
Consequently, the catecholic butanes may be useful in the treatment of cutaneous afflictions such as Kaposi's sarcoma.

[12] abbreviates: Day 14, mean of 3 experiments, read-out: % Inhibition (Mean).
The mark [13] stands for this setting: Day 14, read-out: Percentage Inhibition of Colony Growth, Experiment #1.
Where [14] appears, read: Day 14, read-out: Percentage Inhibition of Colony Growth, Experiment #2.
[15] abbreviates: Day 14, read-out: Percentage Inhibition of Colony Growth, Experiment #3.

What is called inhibition is the drop in the measured response relative to a control, in per cent.

With `C[C@H](Cc1ccc(O)c(O)c1)[C@H](C)Cc1ccc(O)c(O)c1` (relative stereo) [dl-NDGA], in data set [1], the “Tumor Free 60 Days” value is recorded as 4/5 and the “Tumor Recurrence” value was determined as 0.
For the compound `COc1cccc2c1C(=O)c1c(O)c3c(c(O)c1C2=O)C[C@@](O)(C(=O)CO)C[C@@H]3O[C@H]1C[C@H](N)[C@H](O)[C@H](C)O1` [Adriamycin, reference compound], in data set [2] (read-out: ED(50)), the EC50 was 25.6 µM.
Consider `O=c1[nH]cc(F)c(=O)[nH]1` [Composition 5-FU, reference compound], for which the EC50 in data set [2] (read-out: ED(50)) is 102 µM.
`CO[C@@]12[C@H](COC(N)=O)C3=C(C(=O)C(C)=C(N)C3=O)N1C[C@@H]1N[C@@H]12` [Mutamycin, reference compound]: the EC50 in [2] (read-out: ED(50)) amounted to 18.4 µM.
Regarding `C[C@H](Cc1ccc(O)c(O)c1)[C@@H](C)Cc1ccc(O)c(O)c1` [NDGA, meso-1,4-bis (3,4-dihydroxyphenyl)-2,3-dimethylbutane], the absorption of sunlight result in [3] (result in words) is “strongly absorb sunlight at wavelengths known to produce sunburn”. The “strong absorption in the ultraviolet region” value in data set [3] (solution in methanol) turned out to be 2816 Angstroms. In addition, the “reduction of the potential of tumor induction by DMBA” value with tumor induction by DMBA is reported as “significantly reduce the potential of tumor induction by DMBA”. In addition, in data set [1], the “Tumor Free 60 Days” value is reported as 4/5. For the same compound, the “Tumor Recurrence” value in data set [1] turned out to be 0. Moreover, the EC50 in data set [2] (50% cell growth inhibition, ± SD, read-out: Calculated ED(50)) is 17.6 ± 4.07 µM; in [2] (comparison with known anticancer drugs (Table 5B), read-out: ED(50) (the source's name)) it was 17.6 µM. Also, the IC75 in data set [2] (75% cell growth inhibition, ± SD, read-out: Calculated ED(75)) was 26.6 ± 12.1 µM. For the same compound, in [2] (90% cell growth inhibition, ± SD, read-out: Calculated ED(90)), the IC90 is 41.1 ± 28.1 µM. For the same compound, the IC95 in [2] (95% cell growth inhibition, ± SD, read-out: Calculated ED(95)) was 55.9 ± 46.8 µM. For the same compound, the inhibition at 18 µM in data set [4] (setting [12]) stood at 32.4%; in data set [4] (setting [13]), 20.9%; in data set [4] (setting [14]), 36.7%; in data set [4] (setting [15]) it was 39.5%; in [8] (Canis lupus familiaris, 18 microMolar, survival of clonogenic cells relative to nontreated control), 90.9%. Further, the inhibition at 27 µM in [4] (setting [12]) is 47%; in data set [4] (setting [13]) it was 32.8%; in data set [4] (setting [14]), 58.9%; in data set [4] (setting [15]) it was 49.3%; in data set [8] (Canis lupus familiaris, 27 microMolar, survival of clonogenic cells relative to nontreated control), 98.1%. The inhibition at 56 µM in [4] (setting [12]) worked out at 45.3%; in [4] (setting [13]), 33%; in data set [4] (setting [14]) it was 62.2%; in data set [4] (setting [15]) it was 40.7%; in [8] (Canis lupus familiaris, 56 microMolar, survival of clonogenic cells relative to nontreated control) it was 99.8%. Also, the “inhibiting colony growth over the duration of the assay” value in data set [4] (especially noticable at 27 and 56 microMolar NDGA) is given as “uniformly successful in inhibiting colony growth”. In addition, the susceptibility to oxidation entry in [5] is “susceptible to oxidation”. The “effectiveness against lung squamous cell carcinoma (LX-1)” value in data set [6] is listed as “particularly effective”. In the data set on TPA tumor promotion, the “prevention of TPA tumor promotion” value was “nearly completely prevent TPA tumor promotion”. Besides, the screening result in [7] is on record as “negative results”. Besides, the “No. Tumor Colonies Surviving” value was determined as 229.7 ± 10.9 in [8] (5 MicroMolar); 173.3 ± 23.3 in data set [8] (10 MicroMolar); 190 ± 16.3 in data set [8] (18 microMolar); 40 ± 16.3 in [8] (27 microMolar); 3.3 ± 4.7 in data set [8] (56 microMolar). The same compound yielded an inhibition at 10 µM in data set [8] (Canis lupus familiaris, 10 MicroMolar, survival of clonogenic cells relative to nontreated control) of 82.5%. In addition, the “effectiveness against melanoma (B-16)” value in the data set on melanoma (B-16) is “particularly effective”. For the same compound, the clinical outcome with human cancer patients is given as “some positive results”. Besides, the “effectiveness in treating hepatic and colon carcinoma” value in data set [9] is “effective in treating hepatic and colon carcinoma”. Besides, the “effectiveness against human breast adenocarcinoma (MX-1)” value in data set [10] was “particularly effective”. For the same compound, the “ED(50)” value in data set [11] was found to be 13.62 Micromoles. Further, the “ED(75)” value in data set [11] came out at 25.66 Micromoles. Moreover, the “ED(90)” value in [11] was 48.33 Micromoles. In addition, the “ED(95)” value in data set [11] is reported as 74.34 Micromoles. For the same compound, in the data set with tumor cells, the “enhancement of X-ray radiation effectiveness” value is listed as “enhance the X-ray radiation effectiveness of the tumor cells without radiation toxicity to surrounding uninvolved skin”.
